Laboratory results: publication PMC11729428, “New Potent Inhibitor of Transforming Growth Factor-Beta (TGFβ) Signaling that is Efficacious against Microsatellite Stable Colorectal Cancer Metastasis in Combination with Immune Checkpoint Therapy in Mice” (ACS Pharmacology & Translational Science, 2024)

Columns and labels:
ALK3 (BMPR1A) = target: T1, ALK3 (BMPR1A) (Homo sapiens, UniProt P36894); design: method as in earlier work; settings: reported data ref 15; read-out: Binding constant (Kd) ALK3 (BMPR1A); cited from earlier work
T1 construct: purchased Eurofins/DiscoveryX (KINOMEscan service)
T1 sequence (P36894 24-532): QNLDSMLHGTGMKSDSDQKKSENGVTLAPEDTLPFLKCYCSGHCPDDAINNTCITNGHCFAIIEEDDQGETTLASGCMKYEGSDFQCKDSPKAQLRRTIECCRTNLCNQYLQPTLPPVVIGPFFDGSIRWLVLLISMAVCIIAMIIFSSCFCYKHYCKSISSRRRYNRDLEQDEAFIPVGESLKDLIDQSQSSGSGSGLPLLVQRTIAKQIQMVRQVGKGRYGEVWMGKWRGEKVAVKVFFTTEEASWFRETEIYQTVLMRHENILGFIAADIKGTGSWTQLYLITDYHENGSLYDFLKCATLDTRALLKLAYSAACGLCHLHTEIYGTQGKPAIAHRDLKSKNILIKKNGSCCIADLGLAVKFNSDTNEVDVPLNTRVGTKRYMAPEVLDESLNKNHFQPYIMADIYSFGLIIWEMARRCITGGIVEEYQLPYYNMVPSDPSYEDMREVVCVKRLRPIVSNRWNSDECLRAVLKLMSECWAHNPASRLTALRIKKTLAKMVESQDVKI

ALK1 (ACVRL1) = target: T2, ALK1 (ACVRL1) (Homo sapiens, UniProt P37023); design: method as in earlier work; settings: reported data ref 15; read-out: Binding constant (Kd) ALK1 (ACVRL1); cited from earlier work
T2 construct: purchased Eurofins/DiscoveryX (KINOMEscan service)
T2 sequence (P37023 22-503): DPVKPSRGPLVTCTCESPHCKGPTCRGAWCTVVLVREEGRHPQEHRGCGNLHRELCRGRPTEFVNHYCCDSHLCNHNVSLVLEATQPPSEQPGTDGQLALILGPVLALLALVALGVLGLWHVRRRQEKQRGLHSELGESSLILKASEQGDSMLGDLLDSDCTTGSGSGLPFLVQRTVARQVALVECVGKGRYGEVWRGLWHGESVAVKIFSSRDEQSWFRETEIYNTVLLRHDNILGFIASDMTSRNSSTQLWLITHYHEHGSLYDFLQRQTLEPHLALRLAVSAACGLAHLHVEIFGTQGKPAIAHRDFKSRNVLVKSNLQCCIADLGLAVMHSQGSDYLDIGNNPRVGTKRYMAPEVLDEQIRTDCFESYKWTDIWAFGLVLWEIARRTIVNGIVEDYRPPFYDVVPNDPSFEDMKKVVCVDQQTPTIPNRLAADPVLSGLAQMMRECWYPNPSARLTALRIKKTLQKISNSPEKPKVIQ

ALK5 = settings: cited from earlier work
[1] = Literature oral pharmacokinetics in mice; format: in vivo; settings: female, mouse, plasma, mice (♀ CD-1), 75 mg/kg, estimated using AUClast of ref 20
From the text: Table 2 Pharmacokinetics of HYL001 in Preclinical Species after Oral Administration ^a | column: Cl/F (mL/min/kg)

ALK2 (ACVR1) = target: T3, ALK2 (ACVR1) (Homo sapiens, UniProt Q04771); design: method as in earlier work; settings: reported data ref 15; read-out: Binding constant (Kd) ALK2 (ACVR1); cited from earlier work
T3 construct: purchased Eurofins/DiscoveryX (KINOMEscan service)
T3 sequence (Q04771 21-509): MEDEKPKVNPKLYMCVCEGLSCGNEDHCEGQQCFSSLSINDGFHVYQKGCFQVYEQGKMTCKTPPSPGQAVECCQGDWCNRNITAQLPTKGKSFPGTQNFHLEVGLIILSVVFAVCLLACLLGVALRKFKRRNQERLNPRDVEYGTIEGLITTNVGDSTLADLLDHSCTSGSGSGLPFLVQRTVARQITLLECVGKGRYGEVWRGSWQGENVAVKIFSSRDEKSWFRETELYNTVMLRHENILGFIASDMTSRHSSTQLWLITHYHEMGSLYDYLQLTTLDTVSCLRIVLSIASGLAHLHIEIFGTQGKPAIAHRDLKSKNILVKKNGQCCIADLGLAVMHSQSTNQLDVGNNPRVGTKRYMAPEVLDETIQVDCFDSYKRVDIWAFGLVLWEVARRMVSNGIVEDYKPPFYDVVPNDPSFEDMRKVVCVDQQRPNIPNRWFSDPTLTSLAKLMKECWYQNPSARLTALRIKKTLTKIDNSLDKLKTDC

[2] = tested on: TGFβ targets (phospho-SMAD2, CTHRC1, Caldesmon); experiment: Protein expression of TGFβ targets in established liver metastases; format: in vivo; settings: mice with established liver metastases
From the text: (Figure S4). […] Moreover, these mice were resistant to immune checkpoint therapy like human patients with pMMR/MSS CRC are in the clinic.[5],[33]

[3] = Plasma pharmacokinetics after single oral administration in mice; format: in vivo; settings: male, mouse, 71 mg/kg
Method: (§1) We assessed the in vivo pharmacokinetic properties of HYL001 after a single oral administration (dose of 71 mg/kg) in BALB/c mice as well as in Sprague–Dawley (SD) Rats. Liquid chromatography–tandem mass spectrometry (LC/MS/MS) was used for the determination of HYL001 in plasma (Figure S2 and Table 2).
6. Methods for in vivo characterizations of HYL001 […]
WinNonlin software (Version 8.0) […]

[4] = Plasma protein binding by rapid equilibrium dialysis, rat plasma
Method: (§2) 5. Methods for In vitro characterizations of HYL001 […]
(§3) Rapid equilibrium dialysis was performed in triplicates with a rapid equilibrium dialysis (RED) by Sai Life Sciences Lt. (Telangana, India). The RED device contains a dialysis membrane with a molecular weight cut -off […]
(§4) of 8,000 Da, separating two chambers for plasma and buffer, respectively. […]
(§5) were added to the plasma chamber, versus phosphate buffer saline (pH 7.4) to the buffer chamber. Dialysis was performed for 4 h with 100 RPM shaking at 37 °C. […]
(§6) compounds in plasma were either frozen immediately (T0 sample), or incubated at 37 °C for 4 h without dialysis (non-dialysed), respectively.
(§7) Following dialysis, an aliquot was removed from either chamber and diluted with equal volume of opposite matrix to nullify the matrix effect. Similarly, buffer was added to recovery and stability samples. Next, acetonitrile (containing internal standard, glipizide) was added to the mixtures for protein precipitation and vortexed for 5 minutes. The samples were centrifuged at 4000 RPM at 4 °C for 10 min and the supernatant was submitted for liquid chromatography mass spectrometry (LC-MS/MS) analysis. Samples were monitored for parent compound using multiple reaction monitoring (MRM) mode.
(§8) The peak area ratios (PAR, analyte versus internal standard) in plasma vs bufffer were used to determine the fraction of compound bound to plasma proteins. The following equation was used to determine the extent of plasma protein binding: percent free drug = 100% x (PARbuffer / PARplasma); percent bound drug = 100 - % free drug. Recovery was calculated as 100% x (PARplasma + PARbuffer)dialysed / (PARplasma)non-dialysed; stability as 100% x (PAR)non-dialysed / (PARplasma)frozen at T0. […]

[5] = Plasma protein binding by rapid equilibrium dialysis, human plasma; settings: for fraction unbound at 4 h, 5 µM: plasma
Method: as §2, §3, §4, §5, §6, §7, §8

hERG potassium channel = hERG potassium channel (Homo sapiens, UniProt Q12809); experiment: hERG automated patch clamp on CHO-K1 cells; settings: micromolar concentrations
Sequence of hERG potassium channel (Q12809 whole entry): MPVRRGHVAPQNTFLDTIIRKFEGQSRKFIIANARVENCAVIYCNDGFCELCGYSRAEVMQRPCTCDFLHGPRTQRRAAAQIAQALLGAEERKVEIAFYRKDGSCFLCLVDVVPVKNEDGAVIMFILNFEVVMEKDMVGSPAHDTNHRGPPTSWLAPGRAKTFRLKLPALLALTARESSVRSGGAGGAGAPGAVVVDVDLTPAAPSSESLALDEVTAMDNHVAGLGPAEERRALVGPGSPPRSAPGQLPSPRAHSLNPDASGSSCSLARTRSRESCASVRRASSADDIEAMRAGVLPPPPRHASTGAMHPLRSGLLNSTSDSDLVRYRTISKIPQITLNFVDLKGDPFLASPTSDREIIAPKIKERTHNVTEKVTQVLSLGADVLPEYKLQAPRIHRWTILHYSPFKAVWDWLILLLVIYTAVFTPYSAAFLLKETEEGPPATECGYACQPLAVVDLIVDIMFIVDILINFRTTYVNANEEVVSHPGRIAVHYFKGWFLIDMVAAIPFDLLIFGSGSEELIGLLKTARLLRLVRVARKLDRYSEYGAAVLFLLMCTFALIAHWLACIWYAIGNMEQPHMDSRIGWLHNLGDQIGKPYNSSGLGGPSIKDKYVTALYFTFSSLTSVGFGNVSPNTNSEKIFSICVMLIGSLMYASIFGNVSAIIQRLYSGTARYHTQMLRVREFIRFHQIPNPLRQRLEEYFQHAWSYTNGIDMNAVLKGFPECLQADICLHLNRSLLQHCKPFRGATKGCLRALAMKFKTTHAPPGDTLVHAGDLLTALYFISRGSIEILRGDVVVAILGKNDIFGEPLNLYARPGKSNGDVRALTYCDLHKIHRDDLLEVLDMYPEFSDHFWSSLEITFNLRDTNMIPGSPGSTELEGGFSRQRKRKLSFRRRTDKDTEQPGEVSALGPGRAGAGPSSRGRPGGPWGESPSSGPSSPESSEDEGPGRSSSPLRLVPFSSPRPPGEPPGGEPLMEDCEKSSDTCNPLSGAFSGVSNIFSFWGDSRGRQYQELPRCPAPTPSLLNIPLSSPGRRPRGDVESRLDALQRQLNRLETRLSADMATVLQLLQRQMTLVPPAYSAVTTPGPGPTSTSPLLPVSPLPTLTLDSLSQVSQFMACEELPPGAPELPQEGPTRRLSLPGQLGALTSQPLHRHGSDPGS

[6] = Plasma pharmacokinetics after single oral administration in rats; format: in vivo, Sprague Dawley rats; settings: 71 mg/kg, rats (♂ SD)
Method: as §1
6. Methods for in vivo characterizations of HYL001
Similarly, three rats were used in this study. Animals were administered orally with a suspension formulation of […]

panel of enzymes = experiment: In vitro safety pharmacology, enzymatic inhibition (SafetyScreen 44); format: biochemical; settings: 10 μM HYL001
Method: To identify potential adverse off-target drug interactions and derisk the development of HYL001 as a drug,[22] we performed binding and enzymatic inhibition assays with a panel of key proteins (mainly cell receptors, neurotransmitter transporters, and ion channels). […]
analysis by LC-MS/MS, using MRM mode. […]
related to phase I and phase II metabolism, respectively.
The PARs were used for calculation of metabolic stability. The 0 min area ratio was considered as 100%. The […]
incubation volume / number of cells (in millions) x K e. To calculate into full body context, the values of 120 […]
In vitro safety pharmacology […]
compared with historical values determined at Eurofins. Binding was defined as the % inhibition of the signal […]
enzyme activity. […] Results showing
The tail current amplitude, induced by a one […]
and expressed as % inhibition.
The Ames test was performed at Xenomatrix (Allschwil, Switzerland). Bacteria from the S. typhimurium

[7] = male, Sprague-Dawley, rat, plasma

Cc1cccc(-c2nn3c(c2-c2ccnc4ccc(C(N)=O)cc24)CCC3)n1 [galunisertib]
Kd (ALK3 (BMPR1A)): 16.8 µM | Kd (ALK1 (ACVRL1)): 24.9 µM | IC50 (ALK5): […] | CL/F [1]: 402 mL/min/kg | Kd (ALK2 (ACVR1)): 35.7 µM

Cc1cccc(-c2nn3c(c2-c2ccnc4ccc(O)cc24)CCC3)n1 [HYL001, 4-(2-(6-Methylpyridin-2-yl)-5,6-dihydro-4H-pyrrolo[1,2-b]pyrazol-3-yl)quinolin-6-ol]
Protein expression of TGFβ targets (phospho-SMAD2, CTHRC1, Caldesmon) [2]: marked decrease | half-life ([3]; BALB/c, po): ~2.5 h | AUC(0-inf) ([3]; mice (♂ BALB/c)): 4110 ng·h/mL | AUC(0-t) ([3]; mice (♂ BALB/c)): 3520 ng·h/mL | CL/F ([3]; mice (♂ BALB/c)): 288 mL/min/kg | Cmax ([3]; mice (♂ BALB/c)): 2050 ng/mL | Tmax ([3]; mice (♂ BALB/c)): 0.25 h | Vd/F ([3]; mice (♂ BALB/c), read-out: Vss/F): 66.7 L/kg | % Free fraction ([4]; rat plasma): 4.9% | % Compound remaining at 4 hrs ([4]; rat plasma, 37 °C): 106.1% | recovery at 4 h, 5 µM ([4]; rat, plasma (rapid equilibrium dialysis device), pH 7.4): 100% | fraction unbound at 4 h, 5 µM ([4]; rat, plasma, pH 7.4): 0.049 | % Bound Mean ± SD ([5]; human plasma, 5 µM, n=3): ~91% | % Compound remaining at 4 hrs ([5]; human plasma, 37 °C): 101.1% | recovery at 4 h, 5 µM ([5]; human, plasma (rapid equilibrium dialysis device), pH 7.4): 101% | fraction unbound at 4 h, 5 µM ([5]; human, pH 7.4, % Bound Mean ± SD, human plasma, 5 µM, n=3): 0.084 | fraction unbound at 4 h, 5 µM ([5]; human, pH 7.4, % Free fraction, human plasma): 0.084 | hERG inhibition (in words) (hERG potassium channel): low inhibition | half-life ([6]; male, Sprague-Dawley, rat, plasma, po): ~5 h | AUC(0-inf) [6, 7]: 22000 ng·h/mL | AUC(0-t) [6, 7]: 21600 ng·h/mL | CL/F [6, 7]: 53.8 mL/min/kg | Cmax [6, 7]: 8540 ng/mL | Tmax [6, 7]: 0.67 h | Vd/F ([6]; male, Sprague-Dawley, rat, plasma, read-out: Vss/F): 10.8 L/kg | T1/2 [6]: 4.8 h | Inhibition of any of the tested enzymatic activities (panel of enzymes): ≤ 50%
